No end group written: not given here. *: point of attachment. FITC = O=C1OC2(c3ccc(O)cc3Oc3cc(O)ccc32)c2ccc(NC(=S)*)cc21
How the values were obtained:
[1] = tested on: erythroid cells; experiment: Uptake of labelled transferrin receptor-binding peptide into erythroid cells, fluorescence microscopy; format: cell-based; details: added at day M2, about 1 mg/ml, 72 hours, 37 degrees
Procedure: Uptake of a transferrin-binding peptide was also tested. Wild-type CD34+ cells were differentiated as described herein. At day M2 of maturation/differentiation, FITC-LC-HAIYPRH (a fluorescently labelled peptide that binds the transferrin receptor) was added to a culture of about 0.5×10^6 cells at about 1 mg/ml. The labeled peptide was obtained from Anapsec. The cells were cultured in the presence of the labeled peptide for 72 hours at 37 degrees. Internalization of the FITC-LC-HAIYPRH labeled polypeptide by erythroid cells was confirmed by fluorescence microscopy.

[2] = tested on: erythroid cells undergoing maturation; experiment: Uptake of Alexa488-labeled transferrin by erythroid cells during maturation; format: cell-based; details: 1 mg/ml in complete media, 0-24 hours, 37 or 4 degrees; days M1, M4, M5, M6
Procedure: In this example, transferrin receptor (CD71; also referred to herein as TRF) was evaluated for internalization into erythroid cells undergoing maturation. Briefly, wild-type CD34+ cells were differentiated as described herein. Samples of about 0.5×10^6 cells were taken on days M1, M4, M5, and M6 of maturation. […] The cells were incubated with the TRF-Alexa488 at a concentration of 1 mg/ml in complete media for 0-24 hours at 37 degrees or 4 degrees as indicated in FIG. 2.

FITC-LC-HAIYPRH: a fluorescently labelled peptide that binds the transferrin receptor, obtained from Anapsec ({FITC-LC}-HAIYPRH)
Internalization of labeled polypeptide by erythroid cells [1]: confirmed

TFR-Alexa488: Alexa488-labeled transferrin obtained from Thermo Fisher Scientific (#T13342)
Transferrin internalization [2]: active throughout the maturation phase

Source: patent publication US20190062788A1, “LIPID NANOPARTICLE METHODS AND COMPOSITIONS FOR PRODUCING ENGINEERED ERYTHROID CELLS” (RUBIUS THERAPEUTICS, INC., priority 2017, published 2019)
